Test results taken from US20220259593A1, “CONTROL OF MAMMALIAN GENE DOSAGE USING CRISPR” (The Regents of the University of California, priority 2019, published 2022).

Test system: K562 CRISPRi cells
Test: Perturb-seq pooled growth measurement (sgRNA counts, growth phenotype γ, relative activity)
Type: cell-based, human
Conditions: sequencing read counts; for Perturb-seq pooled growth sgRNA counts, d5: 5 days of growth (day seven after transduction); for Perturb-seq pooled growth sgRNA counts, d10: 10 days of growth (day twelve after transduction); for Perturb-seq pooled growth sgRNA counts, T0: T0 = day two after transduction
In short: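 CRISPRi K562 cells from the Perturb-seq transduced pool; 500,000-cell samples taken days two, seven and twelve post-transduction. sgRNA amplicons from genomic DNA sequenced; growth phenotypes from normalized sgRNA abundances at days seven and twelve versus day two. Relative activity assigned from day seven (five days' growth).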

| Substance | Perturb-seq pooled growth sgRNA counts, d5 | Perturb-seq pooled growth sgRNA counts, d10 | Perturb-seq pooled growth sgRNA counts, T0 |
| --- | --- | --- | --- |
| POLR2H_+_184081251.23-P1P2_12: sgRNA targeting POLR2H, GGGGCCACGAGAGCAGGAGA, SEQ ID NO: 117 (listed as DNA, chemistry not fully specified) | 4854 | 5996 | 5334 |
| RAN_+_131356438.23-P1P2_00: sgRNA targeting RAN, GGCGGTCGCTGCGCTTAGGG, SEQ ID NO: 69 (listed as DNA, chemistry not fully specified) | 7598 | 8936 | 5444 |
| RAN_+_131356438.23-P1P2_02: sgRNA targeting RAN, GGCGGCCGCTGCGCTTAGGG, SEQ ID NO: 70 (listed as DNA, chemistry not fully specified) | 15046 | 15358 | 11853 |
| RAN_+_131356438.23-P1P2_03: sgRNA targeting RAN, GGGGGTCGCTGCGCTTAGGG, SEQ ID NO: 71 (listed as DNA, chemistry not fully specified) | 6698 | 6816 | 5056 |
| RAN_+_131356438.23-P1P2_04: sgRNA targeting RAN, GGCGGTCGCGGCGCTTAGGG, SEQ ID NO: 72 (listed as DNA, chemistry not fully specified) | 11409 | 14870 | 6001 |
| RAN_+_131356438.23-P1P2_12: sgRNA targeting RAN, GGCGGTCGCTGCGCTTAGGT, SEQ ID NO: 73 (listed as DNA, chemistry not fully specified) | 16172 | 25349 | 7627 |
| RPL9_+_39460483.23-P1P2_00: sgRNA targeting RPL9, GGATGTTTCTGTGCTCGTGG, SEQ ID NO: 5 (listed as DNA, chemistry not fully specified) | 1141 | 1014 | 10355 |
| RPL9_+_39460483.23-P1P2_01: sgRNA targeting RPL9, GGATGATTCTGTGCTCGTGG, SEQ ID NO: 51 (listed as DNA, chemistry not fully specified) | 1108 | 1238 | 4886 |
| RPL9_+_39460483.23-P1P2_04: sgRNA targeting RPL9, GGATGTTTCAGTGCTCGTGG, SEQ ID NO: 53 (listed as DNA, chemistry not fully specified) | 3975 | 4118 | 5237 |
| RPL9_+_39460483.23-P1P2_05: sgRNA targeting RPL9, GGATGTTTCGGTGCTCGTGG, SEQ ID NO: 52 (listed as DNA, chemistry not fully specified) | 2217 | 2355 | 4950 |
| RPL9_+_39460483.23-P1P2_07: sgRNA targeting RPL9, GGATGTTTCTGCGCTCGTGG, SEQ ID NO: 54 (listed as DNA, chemistry not fully specified) | 7867 | 9339 | 7336 |
| RPS14_+_149829238.23-P1P2_00: sgRNA targeting RPS14, GAGGCCCGGGCGCGACAATC, SEQ ID NO: 45 (listed as DNA, chemistry not fully specified) | 3190 | 2984 | 11846 |
| RPS14_+_149829238.23-P1P2_01: sgRNA targeting RPS14, GAGACCCGGGCGCGACAATC, SEQ ID NO: 46 (listed as DNA, chemistry not fully specified) | 1474 | 1385 | 4954 |
| RPS14_+_149829238.23-P1P2_02: sgRNA targeting RPS14, GAGGCCCTGGCGCGACAATC, SEQ ID NO: 47 (listed as DNA, chemistry not fully specified) | 5497 | 5538 | 11519 |
| RPS14_+_149829238.23-P1P2_04: sgRNA targeting RPS14, GAGGCCCGCGCGCGACAATC, SEQ ID NO: 48 (listed as DNA, chemistry not fully specified) | 9641 | 12547 | 9244 |
| RPS14_+_149829238.23-P1P2_08: sgRNA targeting RPS14, GAGGCCCGGGCTCGACAATC, SEQ ID NO: 50 (listed as DNA, chemistry not fully specified) | 11681 | 17976 | 4488 |
| RPS14_+_149829238.23-P1P2_13: sgRNA targeting RPS14, GAGGCCCGGGCGCGACAGTC, SEQ ID NO: 49 (listed as DNA, chemistry not fully specified) | 9567 | 12082 | 7137 |
| RPS15_−_1438413.23-P1P2_00: sgRNA targeting RPS15, GACCAAAGCGATCTCTTCTG, SEQ ID NO: 60 (listed as DNA, chemistry not fully specified) | 2912 | 3376 | 6757 |
| RPS15_−_1438413.23-P1P2_01: sgRNA targeting RPS15, GACCAAACCGATCTCTTCTG, SEQ ID NO: 64 (listed as DNA, chemistry not fully specified) | 23866 | 39345 | 9713 |
| RPS15_−_1438413.23-P1P2_02: sgRNA targeting RPS15, GACCAAGGCGATCTCTTCTG, SEQ ID NO: 62 (listed as DNA, chemistry not fully specified) | 3113 | 3548 | 5051 |
| RPS15_−_1438413.23-P1P2_07: sgRNA targeting RPS15, GACCAAAGCGGTCTCTTCTG, SEQ ID NO: 61 (listed as DNA, chemistry not fully specified) | 3595 | 4631 | 6337 |
| RPS15_−_1438413.23-P1P2_12: sgRNA targeting RPS15, GACCAAAGCGATCTCTTGTG, SEQ ID NO: 63 (listed as DNA, chemistry not fully specified) | 12257 | 19991 | 4661 |
| RPS18_+_33239917.23-P1P2_00: sgRNA targeting RPS18, GCTGCGATGCCGCTGGATCA, SEQ ID NO: 40 (listed as DNA, chemistry not fully specified) | 1556 | 1535 | 6212 |
| RPS18_+_33239917.23-P1P2_01: sgRNA targeting RPS18, GCTGCAATGCCGCTGGATCA, SEQ ID NO: 41 (listed as DNA, chemistry not fully specified) | 2658 | 2571 | 5202 |
| RPS18_+_33239917.23-P1P2_02: sgRNA targeting RPS18, GCTGGGATGCCGCTGGATCA, SEQ ID NO: 42 (listed as DNA, chemistry not fully specified) | 3404 | 3757 | 5486 |
| RPS18_+_33239917.23-P1P2_04: sgRNA targeting RPS18, GCTGCGATCCCGCTGGATCA, SEQ ID NO: 44 (listed as DNA, chemistry not fully specified) | 9728 | 13186 | 5132 |
| RPS18_+_33239917.23-P1P2_08: sgRNA targeting RPS18, GCTGCGATTCCGCTGGATCA, SEQ ID NO: 43 (listed as DNA, chemistry not fully specified) | 11101 | 13839 | 8535 |
| SEC61A1_−_127771295.23-P1_00: sgRNA targeting SEC61A1, GGCACTGACGTGTCTCTCGG, SEQ ID NO: 83 (listed as DNA, chemistry not fully specified) | 2151 | 2025 | 11429 |
| SEC61A1_−_127771295.23-P1_01: sgRNA targeting SEC61A1, GGCACTGTCGTGTCTCTCGG, SEQ ID NO: 85 (listed as DNA, chemistry not fully specified) | 4006 | 4229 | 5308 |
| SEC61A1_−_127771295.23-P1_02: sgRNA targeting SEC61A1, GGCGCTGACGTGTCTCTCGG, SEQ ID NO: 84 (listed as DNA, chemistry not fully specified) | 4030 | 4238 | 9991 |
